Measurements from ChEMBL document CHEMBL4251596, “Hetero-Diels-Alder reactions of novel 3-triazolyl-nitrosoalkenes as an approach to functionalized 1,2,3-triazoles with antibacterial profile” (Eur J Med Chem, 2018).
Values after ≈ are worked out from the molar mass of the structure shown. Active and inactive are the calls of the source. The calls are words filed in the database; no cut-off is given here.

Key:
Proteus mirabilis = assay: Antibacterial activity against Proteus mirabilis ATCC 15290 assessed as diameter of inhibition at 30 ug/disk after 24 hrs by disk diffusion assay (reference value: 0 mm); type: functional; conditions: ATCC 15290, 24 h, read-out: DIZ
Enterobacter cloacae = assay: Antibacterial activity against Enterobacter cloacae ATCC 23355 assessed as diameter of inhibition at 30 ug/disk after 24 hrs by disk diffusion assay (reference value: 0 mm); type: functional; conditions: ATCC 23355, 24 h, read-out: DIZ
Serratia marcescens = assay: Antibacterial activity against Serratia marcescens ATCC 14756 assessed as diameter of inhibition at 30 ug/disk after 24 hrs by disk diffusion assay (reference value: 0 mm); type: functional; conditions: ATCC 14756, 24 h, read-out: DIZ
Staphylococcus simulans [1] = assay: Antibacterial activity against Staphylococcus simulans ATCC 27851 assessed as diameter of inhibition at 30 ug/disk after 24 hrs by disk diffusion assay (reference value: 0 mm); type: functional; conditions: ATCC 27851, 24 h, read-out: DIZ
Staphylococcus aureus [2] = assay: Antibacterial activity against methicillin-resistant Staphylococcus aureus BMB9393 assessed as diameter of inhibition at 30 ug/disk after 24 hrs by disk diffusion assay (reference value: 0 mm); type: functional; conditions: BMB9393, 24 h, read-out: DIZ
Klebsiella pneumoniae = assay: Antibacterial activity against Klebsiella pneumoniae ATCC 4352 assessed as diameter of inhibition at 30 ug/disk after 24 hrs by disk diffusion assay (reference value: 0 mm); type: functional; conditions: ATCC 4352, 24 h, read-out: DIZ
Pseudomonas aeruginosa = assay: Antibacterial activity against Pseudomonas aeruginosa ATCC 27853 assessed as diameter of inhibition at 30 ug/disk after 24 hrs by disk diffusion assay (reference value: 0 mm); type: functional; conditions: ATCC 27853, 24 h, read-out: DIZ
[3] = system: Staphylococcus epidermidis; assay: Antibacterial activity against Staphylococcus epidermidis ATCC 12228 assessed as diameter of inhibition at 30 ug/disk after 24 hrs by disk diffusion assay (reference value: 0 mm); type: functional; conditions: ATCC 12228, 24 h, read-out: DIZ
Enterococcus faecalis = assay: Antibacterial activity against Enterococcus faecalis ATCC 29212 assessed as diameter of inhibition at 30 ug/disk after 24 hrs by disk diffusion assay (reference value: 0 mm); type: functional; conditions: ATCC 29212, 24 h, read-out: DIZ
Staphylococcus aureus [4] = assay: Antibacterial activity against Staphylococcus aureus ATCC 25923 assessed as diameter of inhibition at 30 ug/disk after 24 hrs by disk diffusion assay (reference value: 0 mm); type: functional; conditions: ATCC 25923, 24 h, read-out: DIZ
Erythrocyte = assay: (§1) Hemolytic activity in human erythrocytes at 10 to 200 ug/ml after 3 hrs relative to control; type: ADME, cell-based; conditions: erythrocyte, 3 h
[5] = Selectivity index, ratio of MIC for antibacterial activity against methicillin-resistant Staphylococcus aureus BMB9393 to MIC for antibacterial activity against Staphylococcus epidermidis ATCC 12228; type: functional
Staphylococcus aureus [6] = assay: Antibiofilm activity against methicillin-resistant Staphylococcus aureus BMB9393 at 1/2 and 1/4 MIC after 24 hrs by crystal violet based assay; type: functional
[7] = Selectivity index, ratio of MIC for antibacterial activity against methicillin-resistant Staphylococcus aureus BMB9393 to MIC for antibacterial activity against Staphylococcus simulans ATCC 27851; type: functional
Staphylococcus aureus [8] = assay: Selectivity index, ratio of MIC for antibacterial activity against methicillin-resistant Staphylococcus aureus BMB9393 to MIC for antibacterial activity against Staphylococcus aureus ATCC 25923; type: functional
[9] = system: Staphylococcus epidermidis; assay: Antibacterial activity against Staphylococcus epidermidis ATCC 12228 after 24 hrs by microdilution assay; type: functional; conditions: ATCC 12228, 24 h
Staphylococcus aureus [10] = assay: Antibacterial activity against methicillin-resistant Staphylococcus aureus BMB9393 at 1/2 and 1/4 MIC after 24 hrs; type: functional, organism-based
Staphylococcus aureus [11] = assay: Antibacterial activity against Staphylococcus aureus ATCC 25923 after 24 hrs by microdilution assay; type: functional; conditions: ATCC 25923, 24 h
[12] = as §1; type: ADME, cell-based, Erythrocyte; conditions: erythrocytes, read-out: Activity
Staphylococcus simulans [13] = assay: Antibacterial activity against Staphylococcus simulans ATCC 27851 after 24 hrs by microdilution assay; type: functional; conditions: ATCC 27851, 24 h
Staphylococcus aureus [14] = assay: Antibacterial activity against methicillin-resistant Staphylococcus aureus BMB9393 after 24 hrs by microdilution assay; type: functional; conditions: BMB9393, 24 h

Compound: COc1ccc(-n2cc(/C(Cc3ccc[nH]3)=N/O)nn2)cc1
- zone of inhibition at 30 µg/disc (Proteus mirabilis): 0 mm
- zone of inhibition at 30 µg/disc (Enterobacter cloacae): 0 mm
- zone of inhibition at 30 µg/disc (Serratia marcescens): 0 mm
- zone of inhibition at 30 µg/disc (Staphylococcus simulans [1]): 0 mm
- zone of inhibition at 30 µg/disc (Staphylococcus aureus [2]): 0 mm
- zone of inhibition at 30 µg/disc (Klebsiella pneumoniae): 0 mm
- zone of inhibition at 30 µg/disc (Pseudomonas aeruginosa): 0 mm
- zone of inhibition at 30 µg/disc [3]: 0 mm
- zone of inhibition at 30 µg/disc (Enterococcus faecalis): 0 mm
- zone of inhibition at 30 µg/disc (Staphylococcus aureus [4]): 0 mm

Compound: CC1(C)S[C@@H]2[C@H](NC(=O)Cc3ccccc3)C(=O)N2[C@H]1C(=O)O [PENICILLIN G]
- Activity (Erythrocyte): Non-Toxic

Compound: O=C(O)c1cn(C2CC2)c2cc(N3CCNCC3)c(F)cc2c1=O [CIPROFLOXACIN]
- zone of inhibition at 30 µg/disc (Proteus mirabilis): 39 mm
- zone of inhibition at 30 µg/disc (Serratia marcescens): 29 mm
- zone of inhibition at 30 µg/disc (Klebsiella pneumoniae): 28 mm
- zone of inhibition at 30 µg/disc (Pseudomonas aeruginosa): 37 mm
- Activity (Erythrocyte): Non-Toxic

Compound: CCC(CC)(c1ccc[nH]1)c1ccc(C/C(=N\O)c2cn(-c3ccc(Cl)cc3)nn2)[nH]1
- Selectivity Index [5]: 8
- zone of inhibition at 30 µg/disc (Proteus mirabilis): 0 mm
- zone of inhibition at 30 µg/disc (Enterobacter cloacae): 0 mm
- zone of inhibition at 30 µg/disc (Serratia marcescens): 0 mm
- Activity (Staphylococcus aureus [6]): 73 - 76%
- zone of inhibition at 30 µg/disc (Staphylococcus simulans [1]): 10 mm
- zone of inhibition at 30 µg/disc (Staphylococcus aureus [2]): 8 mm
- Selectivity Index [7]: 8
- zone of inhibition at 30 µg/disc (Klebsiella pneumoniae): 0 mm
- Selectivity Index (Staphylococcus aureus [8]): 8
- MIC [9]: 32 µg/mL (≈ 73.2 µM)
- Activity (Staphylococcus aureus [10]): Active
- MIC (Staphylococcus aureus [11]): 32 µg/mL (≈ 73.2 µM)
- zone of inhibition at 30 µg/disc (Pseudomonas aeruginosa): 0 mm
- zone of inhibition at 30 µg/disc [3]: 12 mm
- zone of inhibition at 30 µg/disc (Enterococcus faecalis): 0 mm
- hemolysis at 3 h [12]: < 10%
- MIC (Staphylococcus simulans [13]): 32 µg/mL (≈ 73.2 µM)
- MIC (Staphylococcus aureus [14]): 256 µg/mL (≈ 586 µM)
- zone of inhibition at 30 µg/disc (Staphylococcus aureus [4]): 11 mm

Compound: O=[N+]([O-])c1ccc(-n2cc(/C(Cc3ccc[nH]3)=N/O)nn2)cc1
- zone of inhibition at 30 µg/disc (Proteus mirabilis): 0 mm
- zone of inhibition at 30 µg/disc (Enterobacter cloacae): 0 mm
- zone of inhibition at 30 µg/disc (Serratia marcescens): 0 mm
- zone of inhibition at 30 µg/disc (Staphylococcus simulans [1]): 0 mm
- zone of inhibition at 30 µg/disc (Staphylococcus aureus [2]): 0 mm
- zone of inhibition at 30 µg/disc (Klebsiella pneumoniae): 0 mm
- zone of inhibition at 30 µg/disc (Pseudomonas aeruginosa): 0 mm
- zone of inhibition at 30 µg/disc [3]: 0 mm
- zone of inhibition at 30 µg/disc (Enterococcus faecalis): 0 mm
- zone of inhibition at 30 µg/disc (Staphylococcus aureus [4]): 0 mm

Compound: CN[C@H](CC(C)C)C(=O)N[C@H]1C(=O)N[C@@H](CC(N)=O)C(=O)N[C@H]2C(=O)N[C@H]3C(=O)N[C@H](C(=O)N[C@H](C(=O)O)c4cc(O)cc(O)c4-c4cc3ccc4O)[C@H](O)c3ccc(c(Cl)c3)Oc3cc2cc(c3O[C@@H]2O[C@H](CO)[C@@H](O)[C@H](O)[C@H]2O[C@H]2C[C@](C)(N)[C@H](O)[C@H](C)O2)Oc2ccc(cc2Cl)[C@H]1O [VANCOMYCIN]
- Activity (Staphylococcus aureus [6]): Active
- zone of inhibition at 30 µg/disc (Staphylococcus simulans [1]): 20 mm
- zone of inhibition at 30 µg/disc (Staphylococcus aureus [2]): 13 mm
- zone of inhibition at 30 µg/disc [3]: 17 mm
- zone of inhibition at 30 µg/disc (Enterococcus faecalis): 18 mm
- Activity (Erythrocyte): Non-Toxic
- MIC (Staphylococcus simulans [13]): 1 µg/mL (≈ 0.69 µM)
- zone of inhibition at 30 µg/disc (Staphylococcus aureus [4]): 15 mm

Compound: CCC(CC)(c1ccc(C/C(=N\O)c2cn(-c3ccc(Cl)cc3)nn2)[nH]1)c1ccc(C/C(=N\O)c2cn(-c3ccc(Cl)cc3)nn2)[nH]1
- zone of inhibition at 30 µg/disc (Proteus mirabilis): 0 mm
- zone of inhibition at 30 µg/disc (Enterobacter cloacae): 0 mm
- zone of inhibition at 30 µg/disc (Serratia marcescens): 0 mm
- zone of inhibition at 30 µg/disc (Staphylococcus simulans [1]): 0 mm
- zone of inhibition at 30 µg/disc (Staphylococcus aureus [2]): 0 mm
- zone of inhibition at 30 µg/disc (Klebsiella pneumoniae): 0 mm
- zone of inhibition at 30 µg/disc (Pseudomonas aeruginosa): 0 mm
- zone of inhibition at 30 µg/disc [3]: 0 mm
- zone of inhibition at 30 µg/disc (Enterococcus faecalis): 0 mm
- zone of inhibition at 30 µg/disc (Staphylococcus aureus [4]): 0 mm

Compound: O/N=C(/CO/N=C(\Cc1c[nH]c2ccccc12)c1cn(-c2ccc(Cl)cc2)nn1)c1cn(-c2ccc(Cl)cc2)nn1
- zone of inhibition at 30 µg/disc (Proteus mirabilis): 0 mm
- zone of inhibition at 30 µg/disc (Enterobacter cloacae): 0 mm
- zone of inhibition at 30 µg/disc (Serratia marcescens): 0 mm
- zone of inhibition at 30 µg/disc (Staphylococcus simulans [1]): 0 mm
- zone of inhibition at 30 µg/disc (Staphylococcus aureus [2]): 0 mm
- zone of inhibition at 30 µg/disc (Klebsiella pneumoniae): 0 mm
- zone of inhibition at 30 µg/disc (Pseudomonas aeruginosa): 0 mm
- zone of inhibition at 30 µg/disc [3]: 0 mm
- zone of inhibition at 30 µg/disc (Enterococcus faecalis): 0 mm
- zone of inhibition at 30 µg/disc (Staphylococcus aureus [4]): 0 mm

Compound: O/N=C(\Cc1ccc[nH]1)c1cn(-c2ccc(Cl)cc2)nn1
- zone of inhibition at 30 µg/disc (Proteus mirabilis): 0 mm
- zone of inhibition at 30 µg/disc (Enterobacter cloacae): 0 mm
- zone of inhibition at 30 µg/disc (Serratia marcescens): 0 mm
- zone of inhibition at 30 µg/disc (Staphylococcus simulans [1]): 0 mm
- zone of inhibition at 30 µg/disc (Staphylococcus aureus [2]): 0 mm
- zone of inhibition at 30 µg/disc (Klebsiella pneumoniae): 0 mm
- zone of inhibition at 30 µg/disc (Pseudomonas aeruginosa): 0 mm
- zone of inhibition at 30 µg/disc [3]: 0 mm
- zone of inhibition at 30 µg/disc (Enterococcus faecalis): 0 mm
- zone of inhibition at 30 µg/disc (Staphylococcus aureus [4]): 0 mm

Compound: O/N=C(\Cc1ccc[nH]1)c1cn(-c2ccccc2)nn1
- zone of inhibition at 30 µg/disc (Proteus mirabilis): 0 mm
- zone of inhibition at 30 µg/disc (Enterobacter cloacae): 0 mm
- zone of inhibition at 30 µg/disc (Serratia marcescens): 0 mm
- zone of inhibition at 30 µg/disc (Staphylococcus simulans [1]): 0 mm
- zone of inhibition at 30 µg/disc (Staphylococcus aureus [2]): 0 mm
- zone of inhibition at 30 µg/disc (Klebsiella pneumoniae): 0 mm
- zone of inhibition at 30 µg/disc (Pseudomonas aeruginosa): 0 mm
- zone of inhibition at 30 µg/disc [3]: 0 mm
- zone of inhibition at 30 µg/disc (Enterococcus faecalis): 0 mm
- zone of inhibition at 30 µg/disc (Staphylococcus aureus [4]): 0 mm
